Test system: HCV replicon, genotype-1a variant with glutamine 30 changed to glutamate in the NS5A protein
Assay: microbe, parasite or virus in culture
Format: cell-based, HCV genotype 1a
Conditions: HCV replicon genotype 1a Q30E (Q→E) variant; test compound titrated with an NS5A-targeting compound (BMS-790052 fixed at 200 nM); ranking of synergist activity
How it was run: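 Synergy was assessed by combining several fixed amounts of an NS5A-targeting compound with a titration of the second compound of interest.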

| SMILES | Fold-Synergistic 1a (Q30E) |
| --- | --- |
| CC(C)(CF)C(=O)N[C@H](c1nc(-c2ccc(-c3ccc(-c4c[nH]c([C@@H](NC(=O)C(C)(C)CF)C5(C)CC5)n4)cc3)cc2)c[nH]1)C1(C)CC1 [Compound P-143] | >100 fold |
| CC(=O)OC1C2CCCC1(C(=O)N[C@H](c1nc(-c3ccc(-c4ccc(-c5c[nH]c([C@@H](NC(=O)C67CCCC(CCC6)C7OC(C)=O)C(C)(C)C)n5)cc4)cc3)c[nH]1)C(C)(C)C)CCC2 (some centres unmarked) [Compound S-274] | >100 fold |
| O=C(CC(F)(F)F)N1CCC[C@H]1c1ncc(-c2ccc(-c3ccc(-c4cnc([C@@H]5CCCN5C(=O)CC(F)(F)F)[nH]4)cc3)cc2)[nH]1 [Compound S-193] | <10 fold |
| CC(C)(C)[C@H](NC(=O)C(=O)c1ccco1)c1nc(-c2ccc(-c3ccc(-c4c[nH]c([C@@H](NC(=O)C(=O)c5ccco5)C(C)(C)C)n4)cc3)cc2)c[nH]1 [Compound W-20] | >100 fold |
| O=C(c1cnc2n(c1=O)CCS2)N1CCC[C@H]1c1ncc(-c2ccc(-c3ccc(-c4cnc([C@@H]5CCCN5C(=O)c5cnc6n(c5=O)CCS6)[nH]4)cc3)cc2)[nH]1 [Compound S-135] | <10 fold |
| COc1cnc(C(=O)N2CCC[C@H]2c2ncc(-c3ccc(-c4ccc(-c5cnc([C@@H]6CCCN6C(=O)c6ncc(OC)c7ccccc67)[nH]5)cc4)cc3)[nH]2)c2ccccc12 [Compound S-199] | >100 fold |
| CO[C@H]1C[C@@H](C(=O)N[C@H](c2nc(-c3ccc(-c4ccc(-c5c[nH]c([C@@H](NC(=O)[C@@H]6C[C@H](OC)CN6C(=O)OC(C)(C)C)C(C)(C)C)n5)cc4)cc3)c[nH]2)C(C)(C)C)N(C(=O)OC(C)(C)C)C1 [Compound W-115] | >100 fold |
| CC(C)(C)CC(=O)N1CCC[C@H]1c1ncc(-c2ccc(-c3ccc(-c4cnc([C@@H]5CCCN5C(=O)CC(C)(C)C)[nH]4)cc3)cc2)[nH]1 [Compound S-197] | <10 fold |
| CC(C)(C)[C@H](NC(=O)[C@H]1[C@@H]2COC[C@@H]21)c1nc(-c2ccc(-c3ccc(-c4c[nH]c([C@@H](NC(=O)[C@H]5[C@@H]6COC[C@@H]65)C(C)(C)C)n4)cc3)cc2)c[nH]1 [Compound L-67] | >100 fold |
| O=C(c1ccsc1)N1CCC[C@H]1c1ncc(-c2ccc(-c3ccc(-c4cnc([C@@H]5CCCN5C(=O)c5ccsc5)[nH]4)cc3)cc2)[nH]1 [Compound S-183] | <10 fold |
| CC(C)(C)OC(=O)N[C@@H]1CCC[C@H]1C(=O)N[C@H](c1nc(-c2ccc(-c3ccc(-c4c[nH]c([C@@H](NC(=O)[C@@H]5CCC[C@H]5NC(=O)OC(C)(C)C)C(C)(C)C)n4)cc3)cc2)c[nH]1)C(C)(C)C [Compound W-12] | >100 fold |
| CC(C)(C(=O)N[C@H](c1nc(-c2ccc(-c3ccc(-c4c[nH]c([C@@H](NC(=O)C(C)(C)C5(O)CCC(F)(F)CC5)C5CC5)n4)cc3)cc2)c[nH]1)C1CC1)C1(O)CCC(F)(F)CC1 [Compound L-91] | >100 fold |
| Cc1nnc(C(=O)N[C@H](c2nc(-c3ccc(-c4ccc(-c5c[nH]c([C@@H](NC(=O)c6nnc(C)o6)C(C)(C)C)n5)cc4)cc3)c[nH]2)C(C)(C)C)o1 [Compound L-89] | >10 fold |
| CC(C)[C@H](NC(=O)[C@@H]1C[C@@H](F)CN1C(=O)OC(C)(C)C)c1nc(-c2ccc(-c3ccc(-c4c[nH]c([C@@H](NC(=O)[C@@H]5C[C@@H](F)CN5C(=O)OC(C)(C)C)C(C)C)n4)cc3)cc2)c[nH]1 [Compound W-181] | >100 fold |
| CC(C)(C)[C@H](NC(=O)C(=O)N1CC(F)(F)C1)c1nc(-c2ccc(-c3ccc(-c4c[nH]c([C@@H](NC(=O)C(=O)N5CC(F)(F)C5)C(C)(C)C)n4)cc3)cc2)c[nH]1 [Compound W-28] | >100 fold |
| CC(C)(C)[C@H](NC(=O)[C@H](O)C(F)(F)F)c1nc(-c2ccc(-c3ccc(-c4c[nH]c([C@@H](NC(=O)[C@H](O)C(F)(F)F)C(C)(C)C)n4)cc3)cc2)c[nH]1 [Compound L-81] | >100 fold |
| CC(C)(C)[C@H](NC(=O)C1(OC(=O)N2CCCCC2)CC1)c1nc(-c2ccc(-c3ccc(-c4c[nH]c([C@@H](NC(=O)C5(OC(=O)N6CCCCC6)CC5)C(C)(C)C)n4)cc3)cc2)c[nH]1 [Compound L-28] | >100 fold |
| COC(=O)N[C@@H](C(=O)N[C@@H](C)c1nc(-c2ccc(-c3ccc(-c4c[nH]c([C@H](C)NC(=O)[C@H](NC(=O)OC)C(C)C)n4)cc3)cc2)c[nH]1)C(C)C [Compound N-37] | >10 fold |
| O=C(Cc1ccc(Oc2ccccc2)cc1)N1CCC[C@H]1c1ncc(-c2ccc(-c3ccc(-c4cnc([C@@H]5CCCN5C(=O)Cc5ccc(Oc6ccccc6)cc5)[nH]4)cc3)cc2)[nH]1 [Compound S-154] | >10 fold |
| CC(C)(C(=O)N[C@H](c1nc(-c2ccc(-c3ccc(-c4c[nH]c([C@@H](NC(=O)C(C)(C)C(=O)N5CC6CC6C5)C(C)(C)C)n4)cc3)cc2)c[nH]1)C(C)(C)C)C(=O)N1CC2CC2C1 (some centres unmarked) [Compound W-153] | >100 fold |
| CC1(OC(=O)N2C[C@H](F)C[C@H]2C(=O)N[C@H](c2nc(-c3ccc(-c4ccc(-c5c[nH]c([C@@H](NC(=O)[C@@H]6C[C@@H](F)CN6C(=O)OC6(C)CC6)C(C)(C)C)n5)cc4)cc3)c[nH]2)C(C)(C)C)CC1 [Compound W-119] | >100 fold |
| COC(C)(C(=O)N[C@H](c1nc(-c2ccc(-c3ccc(-c4c[nH]c([C@@H](NC(=O)C(C)(OC)C5(O)CCC(F)(F)CC5)C(C)(C)C)n4)cc3)cc2)c[nH]1)C(C)(C)C)C1(O)CCC(F)(F)CC1 (some centres unmarked) [Compound P-156] | >100 fold |
| CC(C)C(c1ncc(-c2ccc(-c3ccc(-c4cnc(C(C(C)C)N5CCCCC5=O)[nH]4)cc3)cc2)[nH]1)N1CCCCC1=O (centres unmarked) [Compound P-52] | >10 fold |
| CC(C)(C)OC(=O)N1C[C@H](O)C[C@H]1C(=O)N[C@H](c1nc(-c2ccc(-c3ccc(-c4c[nH]c([C@@H](NC(=O)[C@@H]5C[C@@H](O)CN5C(=O)OC(C)(C)C)C5(C)CC5)n4)cc3)cc2)c[nH]1)C1(C)CC1 [Compound W-95] | >100 fold |
| C[C@H](C(=O)OC(C)(C)C)[C@@H](C)C(=O)N[C@H](c1nc(-c2ccc(-c3ccc(-c4c[nH]c([C@@H](NC(=O)[C@H](C)[C@H](C)C(=O)OC(C)(C)C)C(C)(C)C)n4)cc3)cc2)c[nH]1)C(C)(C)C [Compound S-292] | >100 fold |
| O=C(Cc1cccc2ccccc12)N1CCC[C@H]1c1ncc(-c2ccc(-c3ccc(-c4cnc([C@@H]5CCCN5C(=O)Cc5cccc6ccccc56)[nH]4)cc3)cc2)[nH]1 [Compound S-144] | >10 fold |
| CC1(C)CCCC(C)(C(=O)N[C@H](c2nc(-c3ccc(-c4ccc(-c5c[nH]c([C@@H](NC(=O)C6(C)CCCC(C)(C)O6)C(C)(C)C)n5)cc4)cc3)c[nH]2)C(C)(C)C)O1 (some centres unmarked) [Compound W-165] | >100 fold |
| O=C(c1ccccn1)N1CCC[C@H]1c1ncc(-c2ccc(-c3ccc(-c4cnc([C@@H]5CCCN5C(=O)c5ccccn5)[nH]4)cc3)cc2)[nH]1 [Compound S-184] | <10 fold |
| CCC(F)(F)C(=O)N[C@H](c1nc(-c2ccc(-c3ccc(-c4c[nH]c([C@@H](NC(=O)C(F)(F)CC)C(C)(C)C)n4)cc3)cc2)c[nH]1)C(C)(C)C [Compound S-284] | >100 fold |

Source: US9326973B2, “Hepatitis C virus inhibitors” (priority 2012, dated 2016)
